Experiments:
LOX2:Md:2a (MdLOX2a) = molecular target: T1, LOX2:Md:2a (MdLOX2a) (Malus domestica, UniProt S4U6N9); assay: HPLC product analysis; format: biochemical; conditions: 50 mM sodium phosphate pH 7.5, 25 °C, 0.3 mM substrate
T1 sequence (S4U6N9 1-906): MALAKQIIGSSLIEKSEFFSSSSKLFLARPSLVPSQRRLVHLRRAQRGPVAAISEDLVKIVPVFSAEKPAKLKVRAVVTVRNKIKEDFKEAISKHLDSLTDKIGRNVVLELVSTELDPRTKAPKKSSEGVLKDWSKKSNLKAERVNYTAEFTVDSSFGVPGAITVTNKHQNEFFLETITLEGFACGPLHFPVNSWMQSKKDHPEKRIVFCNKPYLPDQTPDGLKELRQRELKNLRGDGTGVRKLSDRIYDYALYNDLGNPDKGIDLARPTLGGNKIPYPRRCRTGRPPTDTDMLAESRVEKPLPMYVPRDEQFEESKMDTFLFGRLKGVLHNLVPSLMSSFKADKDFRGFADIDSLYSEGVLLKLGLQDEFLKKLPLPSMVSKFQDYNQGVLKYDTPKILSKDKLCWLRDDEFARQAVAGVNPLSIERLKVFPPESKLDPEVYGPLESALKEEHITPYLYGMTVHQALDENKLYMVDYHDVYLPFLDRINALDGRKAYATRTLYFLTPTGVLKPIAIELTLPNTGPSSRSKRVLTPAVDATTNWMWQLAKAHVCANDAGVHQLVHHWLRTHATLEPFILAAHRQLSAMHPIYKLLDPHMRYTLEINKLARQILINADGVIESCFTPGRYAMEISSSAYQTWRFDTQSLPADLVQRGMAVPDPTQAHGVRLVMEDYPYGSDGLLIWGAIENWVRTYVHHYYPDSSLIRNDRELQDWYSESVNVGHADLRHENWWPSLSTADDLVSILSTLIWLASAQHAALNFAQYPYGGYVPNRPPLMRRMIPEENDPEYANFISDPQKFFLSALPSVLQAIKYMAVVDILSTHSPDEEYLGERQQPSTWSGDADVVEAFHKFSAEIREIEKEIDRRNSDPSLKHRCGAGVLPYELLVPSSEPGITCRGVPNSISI

LOX2:Md:2b (MdLOX2b) = molecular target: T2, LOX2:Md:2b (MdLOX2b) (Malus domestica, UniProt S4ULD7); assay: HPLC product analysis; format: biochemical; conditions: 50 mM sodium phosphate pH 7.5, 25 °C, 0.3 mM substrate
T2 sequence (S4ULD7 1-905): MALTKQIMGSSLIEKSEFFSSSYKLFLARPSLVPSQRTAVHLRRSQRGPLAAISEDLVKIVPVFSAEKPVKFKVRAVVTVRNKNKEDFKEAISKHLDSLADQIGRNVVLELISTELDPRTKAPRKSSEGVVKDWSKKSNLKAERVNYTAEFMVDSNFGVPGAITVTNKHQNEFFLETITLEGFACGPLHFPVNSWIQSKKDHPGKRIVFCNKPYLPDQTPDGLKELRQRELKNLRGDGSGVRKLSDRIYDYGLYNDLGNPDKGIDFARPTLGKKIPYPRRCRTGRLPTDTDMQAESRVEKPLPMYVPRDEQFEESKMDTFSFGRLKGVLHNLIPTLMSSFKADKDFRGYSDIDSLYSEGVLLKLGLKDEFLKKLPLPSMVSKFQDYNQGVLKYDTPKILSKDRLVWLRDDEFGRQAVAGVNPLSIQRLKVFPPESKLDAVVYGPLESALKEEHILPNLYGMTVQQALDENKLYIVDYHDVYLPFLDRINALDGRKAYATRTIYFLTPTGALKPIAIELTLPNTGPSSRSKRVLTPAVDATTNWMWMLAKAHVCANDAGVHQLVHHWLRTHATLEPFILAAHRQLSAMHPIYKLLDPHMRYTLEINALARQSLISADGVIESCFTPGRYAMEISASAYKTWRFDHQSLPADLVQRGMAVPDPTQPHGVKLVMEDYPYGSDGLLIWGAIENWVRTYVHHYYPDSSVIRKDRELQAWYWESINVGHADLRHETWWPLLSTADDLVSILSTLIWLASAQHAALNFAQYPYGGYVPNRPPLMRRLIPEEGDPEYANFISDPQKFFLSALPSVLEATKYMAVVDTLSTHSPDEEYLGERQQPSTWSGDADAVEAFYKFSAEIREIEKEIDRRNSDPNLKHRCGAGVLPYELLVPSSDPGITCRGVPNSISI

Row | Compound | HPLC product analysis (SP-HPLC, CP-HPLC) (LOX2:Md:2a (MdLOX2a)) | HPLC product analysis (SP-HPLC, CP-HPLC) (LOX2:Md:2b (MdLOX2b))
1 | CC/C=C\C/C=C\C/C=C\CCCCCCCC(=O)O [α-linolenic acid] | LOX2:Md:2a and LOX2:Md:2b converted LA and LnA predominantly to 13-hydroperoxides | LOX2:Md:2a and LOX2:Md:2b converted LA and LnA predominantly to 13-hydroperoxides
2 | CCCCC/C=C\C/C=C\CCCCCCCC(=O)O [linoleic acid] | LOX2:Md:2a and LOX2:Md:2b converted LA and LnA predominantly to 13-hydroperoxides | LOX2:Md:2a and LOX2:Md:2b converted LA and LnA predominantly to 13-hydroperoxides
